{"source": "paper PMC5397431", "about": "“Multigeneration toxicity of imidacloprid and thiacloprid to Folsomia candida” (Ecotoxicology (London, England), 2017)", "key": {"Aphis gossypii": {"test_system": "Aphis gossypii", "set-up": "method as in Shi et al. (2011)", "settings": "exposed dermally for 48 h; ref Shi et al. (2011); cited from earlier work"}, "Folsomia candida [1]": {"test_system": "Folsomia candida", "assay": "Multigeneration toxicity test (survival and reproduction) with springtails in spiked LUFA 2.2 soil", "assay_type": "in vivo", "settings": "for EC50: number of juveniles", "experimental": "F. candida were taken from cultures at the Department of Ecological Science at the Vrije Universiteit in Amsterdam. To obtain age-synchronized animals, adults from the culture were separated in boxes with a layer of plaster of Paris over a period of 2–3 days to lay eggs, after which they were removed. After removal of the adults, the eggs were incubated under a 12 h light/12 h dark regime at 20 °C and 75% relative humidity, where they hatched and grew. Juveniles of 10–12 days old were used for testing.\nAll tests were performed in the natural standard LUFA 2.2 (Lufa Speyer, Germany), a loamy sand with 1.59 ± 0.13% organic carbon, pH in 0.01 M CaCl2 of 5.4 ± 0.2, and water holding capacity (WHC) of 43.5 ± 2.8% of its dry weight.\nPure imidacloprid and thiacloprid (purity 98%) were kindly provided by Bayer CropScience, Monheim, Germany. Test concentrations of imidacloprid and thiacloprid were based on the results of earlier tests. Stock solution of both compounds in water were prepared, to spike the chemicals into the soil and at the same time bringing moisture content to the desired level of 50% of the WHC. To ensure complete thiacloprid dissolution, a small amount of acetone was added to the stock solution. This stock solution was used to spike soil with the highest test concentration and further diluted for spiking soil with the lower concentrations tested. Considering the low amount of acetone needed to make thiacloprid completely dissolve, no attempts were made to correct for that by adding acetone to the lower concentrations and control in the multigeneration test. All soils were thoroughly mixed to achieve a homogenous distribution of the test chemicals in the test soil.\nMultigeneration tests started with a control, […] imidacloprid (0, 0.001, 0.003, 0.01, 0.03, 0.1, 0.3, 1.0 mg/kg dry soil) and 9 thiacloprid concentrations (0, 0.0015, 0.0045, 0.014, 0.041, 0.11, 0.31, 1.1, 3.3, 10.0 mg/kg dry soil). Batches of soil sufficient to perform three toxicity tests were prepared. After filling test jars for the parent generation exposure, the remaining spiked soil was stored in glass jars in a climate room at 20 °C for subsequent exposure of the next two generations. Moisture content of the spiked soil was checked regularly by weighing the jars, and replenished by adding deionized water if needed.\nAfter 28 days (35 days for the second generation), the juveniles from the same exposure concentration were pooled in the same container with a moist plaster of Paris bottom and incubated overnight before being transferred to the next cycle of exposure. This experiment spanned a total of three continuous generations (referred to as F0, F1, and F2)."}, "Folsomia candida [2]": {"test_system": "Folsomia candida", "settings": "cited from earlier work"}, "Folsomia candida [3]": {"test_system": "Folsomia candida", "assay": "Literature data on toxicity to Folsomia candida in soil", "assay_type": "in vivo", "settings": "28-day, artificial soil; 10% OM (sphagnum peat), pure; recalculated with logistic dose-response model from figures; ref Reynolds (2008)", "text": "The LC50 and EC50 values for the toxicity of imidacloprid found in this study are within the range set by previous studies in our lab (Table S3). The values reported by Idinger ([2002]) for the toxicity of imidacloprid in the commercial formulation Confidor 70WP, tested in artificial soil, also are in the same range. Some LC50s reported in the literature, however, are somewhat higher, which could be explained by several factors. […] The use of an artificial soil with higher OM contents probably also explains the somewhat higher LC50 and EC50 values reported by Reynolds ([2008]). […] For two commercial formulations, EFSA ([2008]) found lower NOECs of 0.2–0.32 mg a.s./kg. Laboratory conditions such as temperature and light/dark regime may affect the metabolism of test animals, leading to differential toxicity of imidacloprid.\nTable S3. Overview of data on the toxicity of imidacloprid and thiacloprid to Folsomia candida. All LC50 and EC50 values are in mg/kg dry soil and all tests were carried out on a 28-day exposure period. OM = organic matter."}, "[4]": {"settings": "F0 generation, 28 days, LUFA 2.2 soil, nominal concentrations"}, "[5]": {"settings": "F1 generation, 35 days, soil spiked at start of F0, nominal concentrations"}, "[6]": {"settings": "F2 generation, 28 days, soil spiked at start of F0, nominal concentrations"}, "[7]": {"settings": "range over the three generations, Lufa 2.2, pure compound, this study"}, "[8]": {"settings": "28-day exposure, Lufa 2.2, ~3.0% OM, pure, ref De Lima e Silva et al. (submitted)"}, "[9]": {"settings": "artificial soil, 10% OM, based on regression analysis, ref Reynolds (2008)"}}, "note": "“And” between values parts separate entries of the source, which are not always exact repeats. Identical values can stand only once. Like-named read-outs stand apart in the source and are kept apart here."}
{"compound": "O=[N+]([O-])NC1=NCCN1Cc1ccc(Cl)nc1", "note": "[Imidacloprid, imidacloprid]", "values": [{"measurement": "times more sensitive than to thiacloprid", "setting": "Aphis gossypii", "result": "about 7.5 times"}, {"measurement": "NOEC", "setting": "Folsomia candida [1]; [4]", "result": "0.1 mg/kg dry soil and 0.10 mg/kg dry soil"}, {"measurement": "LC50", "setting": "Folsomia candida [1]; F0 generation, 28 days, adult survival, LUFA 2.2 soil, nominal concentrations", "result": 0.44, "unit": "mg/kg dry soil"}, {"measurement": "EC50", "setting": "Folsomia candida [1]; [4]", "result": 0.29, "unit": "mg/kg dry soil"}, {"measurement": "EC50", "setting": "Folsomia candida [1]; [5]", "result": 0.12, "unit": "mg/kg dry soil"}, {"measurement": "LC50", "setting": "Folsomia candida [1]; [5]", "result": 0.39, "unit": "mg/kg dry soil"}, {"measurement": "NOEC", "setting": "Folsomia candida [1]; [5]", "result": "0.1 mg/kg dry soil and 0.10 mg/kg dry soil"}, {"measurement": "EC50", "setting": "Folsomia candida [1]; [6]", "result": 0.14, "unit": "mg/kg dry soil"}, {"measurement": "LC50", "setting": "Folsomia candida [1]; [6]", "result": 0.21, "unit": "mg/kg dry soil"}, {"measurement": "NOEC", "setting": "Folsomia candida [1]; [6]", "result": "0.1 mg/kg dry soil and 0.10 mg/kg dry soil"}, {"measurement": "EC10", "setting": "Folsomia candida [1]; Folsomia candida, in vivo, 35 days, pH 5.4", "result": 0.080, "unit": "mg/kg dry soil"}, {"measurement": "EC50, range over generations", "setting": "Folsomia candida [1]; [7]", "result": "0.12–0.29 mg/kg dry soil"}, {"measurement": "LC50, range over generations", "setting": "Folsomia candida [1]; [7]", "result": "0.21–0.44 mg/kg dry soil"}, {"measurement": "EC50", "setting": "Folsomia candida [2]; [8]", "result": "0.097-0.30 mg/kg dry soil"}, {"measurement": "LC50", "setting": "Folsomia candida [2]; [8]", "result": "0.20-0.65 mg/kg dry soil"}, {"measurement": "NOEC", "setting": "Folsomia candida [2]; active substance, ref EFSA (2008)", "result": 1.25, "unit": "mg/kg dry soil"}, {"measurement": "EC50 reported by Reynolds", "setting": "Folsomia candida [2]; [9]", "result": 0.60, "unit": "mg/kg"}, {"measurement": "LC50 reported by Reynolds", "setting": "Folsomia candida [2]; [9]", "result": 1.38, "unit": "mg/kg"}, {"measurement": "EC50, recalculated", "setting": "Folsomia candida [3]", "result": "0.26^& mg/kg dry soil"}, {"measurement": "LC50, recalculated", "setting": "Folsomia candida [3]", "result": "0.86^& mg/kg dry soil"}]}
